≈ marks a conversion by molar mass, not a printed value. Like-named read-outs stand apart in the source and are kept apart here.
How the values were obtained:
Mtb H37Rv = assay: Microplate Alamar Blue assay, MIC; type: cell-based, Mycobacterium tuberculosis; conditions: for MIC: Mycobacterium tuberculosis, H37RV
Mtb H37Ra = assay: Microdilution broth resazurin assay, MIC; type: cell-based, Mycobacterium tuberculosis
M. kansasii = assay: Microplate Alamar Blue assay, MIC; type: cell-based, Mycobacterium kansasii; conditions: for MIC: Mycobacterium kansasii, read-out: Antimycobacterial Activity MIC M. kans.
M. avium = assay: Microdilution broth resazurin assay, MIC; type: cell-based, Mycobacterium avium
M. smegmatis = assay: Microdilution broth resazurin assay, MIC; type: cell-based, Mycolicibacterium smegmatis
M. aurum = assay: Microdilution broth resazurin assay, MIC; type: cell-based, Mycolicibacterium aurum
HepG2 [1] = conditions: cytotoxicity
MRC-5 [2] = conditions: cytotoxicity
HepG2 [3] = assay: cells; conditions: Homo sapiens
MRC-5 [4] = assay: cells; conditions: Homo sapiens
[5] = test system: Candida albicans ATCC 24433, CCM 8320; assay: Antifungal microdilution broth, quality standards; type: cell-based; conditions: 24 h, read-out: IC90, spectrophotometric detection, Candida albicans
[6] = test system: Candida krusei ATCC 6258, CCM 8271; assay: Antifungal microdilution broth, quality standards; type: cell-based; conditions: Pichia kudriavzevii, 24 h
[7] = test system: Candida parapsilosis ATCC 22019, CCM 8260; assay: Antifungal microdilution broth, quality standards; type: cell-based; conditions: Lodderomyces parapsilosis, 24 h
[8] = test system: Candida tropicalis ATCC 750, CCM 8264; assay: Antifungal microdilution broth, quality standards; type: cell-based; conditions: 24 h
[9] = test system: Aspergillus fumigatus ATCC 204305; assay: Antifungal microdilution broth, quality standards; type: cell-based; conditions: ATCC204305, 48 h
[10] = test system: Aspergillus flavus CCM 8363; assay: Antifungal microdilution broth, quality standards; type: cell-based; conditions: CCM8363, 48 h
[11] = test system: Lichtheimia corymbifera CCM 8077; assay: Antifungal microdilution broth, quality standards; type: cell-based; conditions: CCM8077, 48 h
[12] = test system: Trichophyton interdigitale ATCC 9533, CCM 8377; assay: Antifungal microdilution broth, quality standards; type: cell-based; conditions: 120 h, 26 °C
[13] = Table S5 matching pairs series A and B
[14] = read-out: IC50 for HepG2 [24 h], 24 h incubation
[15] = read-out: IC50 for MRC-5 [24 h], 24 h incubation
[16] = Microplate Alamar Blue assay, read-out: Antimycobacterial Activity MIC Mtb H37Rv
[17] = read-out: Antimycobacterial Activity MIC Mtb H37Rv, Table S5 matching pairs series A and B
[18] = Mycobacterium tuberculosis, H37RA, read-out: Antimycobacterial Activity MIC Mtb H37Ra
[19] = Mycobacterium avium; read-out: Antimycobacterial Activity MIC M. avium
[20] = Mycolicibacterium smegmatis; read-out: Antimycobacterial Activity MIC M. smeg.
[21] = Mycolicibacterium aurum; read-out: Antimycobacterial Activity MIC M. aurum
[22] = HepG2, 24 h, read-out: IC50 for HepG2 [24 h]
[23] = HepG2, 72 h, read-out: IC50 for HepG2 [72 h]
[24] = MRC5, 24 h, read-out: IC50 for MRC-5 [24 h]
[25] = MRC5, 72 h, read-out: IC50 for MRC-5 [72 h]
[26] = Mycobacterium avium, read-out: Antimycobacterial Activity MIC M. avium
[27] = Mycolicibacterium smegmatis, read-out: Antimycobacterial Activity MIC M. smeg.
[28] = Mycolicibacterium aurum, read-out: Antimycobacterial Activity MIC M. aurum
[29] = Mycobacterium tuberculosis, H37RA; read-out: Antimycobacterial Activity MIC Mtb H37Ra

COc1cccc(Cn2c(C)nc3ccccc3c2=O)c1 [Compound 2]
Antimycobacterial Activity MIC Mtb H37Rv (Mtb H37Rv; Microplate Alamar Blue assay): 100 µg/mL
Antimycobacterial Activity MIC Mtb H37Ra (Mtb H37Ra): 62.5 µg/mL
Antimycobacterial Activity MIC Mtb H37Ra (Mtb H37Ra; [13]): 62.5 µg/mL
Antimycobacterial Activity MIC M. kans. (M. kansasii): 100 µg/mL
Antimycobacterial Activity MIC M. avium (M. avium): 62.5 µg/mL
Antimycobacterial Activity MIC M. avium (M. avium; [13]): 62.5 µg/mL
Antimycobacterial Activity MIC M. smeg. (M. smegmatis): 250 µg/mL
Antimycobacterial Activity MIC M. smeg. (M. smegmatis; [13]): 250 µg/mL
Antimycobacterial Activity MIC M. aurum (M. aurum): 125 µg/mL
Antimycobacterial Activity MIC M. aurum (M. aurum; [13]): 125 µg/mL
IC50 (HepG2 [1]; [14]): 305 ± 3 µM
IC50 (HepG2 [1]; read-out: IC50 for HepG2 [72 h], 72 h incubation): 135 ± 6 µM
IC50 (MRC-5 [2]; [15]): > 300 µM
IC50 (MRC-5 [2]; read-out: IC50 for MRC-5 [72 h], 72 h incubation): 215 ± 24 µM

Cc1nc2ccccc2c(=O)n1Cc1cccc(Cl)c1 [Compound 6]
Antimycobacterial Activity MIC Mtb H37Rv (Mtb H37Rv; Microplate Alamar Blue assay): 50 µg/mL
Antimycobacterial Activity MIC Mtb H37Rv (Mtb H37Rv; [13]): 50 µg/mL
Antimycobacterial Activity MIC Mtb H37Ra (Mtb H37Ra): 31.25 µg/mL
Antimycobacterial Activity MIC Mtb H37Ra (Mtb H37Ra; [13]): 31.25 µg/mL
Antimycobacterial Activity MIC M. kans. (M. kansasii): 25 µg/mL
Antimycobacterial Activity MIC M. kans. (M. kansasii; [13]): 25 µg/mL
Antimycobacterial Activity MIC M. avium (M. avium): 31.25 µg/mL
Antimycobacterial Activity MIC M. avium (M. avium; [13]): 31.25 µg/mL
Antimycobacterial Activity MIC M. smeg. (M. smegmatis): 62.5 µg/mL
Antimycobacterial Activity MIC M. smeg. (M. smegmatis; [13]): 62.5 µg/mL
Antimycobacterial Activity MIC M. aurum (M. aurum): 62.5 µg/mL
Antimycobacterial Activity MIC M. aurum (M. aurum; [13]): 62.5 µg/mL
IC50 (HepG2 [1]; [14]): 507 ± 48 µM
IC50 (MRC-5 [2]; [15]): 551 ± 19 µM

Cc1nc2cc(Cl)ccc2c(=O)n1Cc1cccc(Cl)c1 [Compound 21]
MIC (Mtb H37Rv; [16]): 25 µg/mL (≈ 78.3 µM)
MIC (Mtb H37Rv; [17]): 25 µg/mL (≈ 78.3 µM)
Antimycobacterial Activity MIC Mtb H37Ra (Mtb H37Ra): 15.625 µg/mL
MIC (Mtb H37Ra; [18]): 15.6 µg/mL (≈ 49 µM)
MIC (M. kansasii): > 100 µg/mL
MIC (M. avium; [19]): ≥ 250 µg/mL
Antimycobacterial Activity MIC M. avium (M. avium; [13]): ≥ 250 µg/mL
MIC (M. smegmatis; [20]): ≥ 250 µg/mL
Antimycobacterial Activity MIC M. smeg. (M. smegmatis; [13]): ≥ 250 µg/mL
MIC (M. aurum; [21]): ≥ 250 µg/mL
Antimycobacterial Activity MIC M. aurum (M. aurum; [13]): ≥ 250 µg/mL
IC50 (HepG2 [3]; [22]): > 50 µM
IC50 (HepG2 [3]; [23]): > 50 µM
IC50 (MRC-5 [4]; [24]): > 50 µM
IC50 (MRC-5 [4]; [25]): > 50 µM

Cc1nc2cc(Cl)ccc2c(=O)n1Cc1ccc(Cl)c(Cl)c1 [Compound 24]
MIC (Mtb H37Rv; [16]): 50 µg/mL (≈ 141 µM)
MIC (Mtb H37Rv; [17]): > 100 µg/mL
Antimycobacterial Activity MIC Mtb H37Ra (Mtb H37Ra): 15.625 µg/mL
MIC (Mtb H37Ra; [18]): 15.6 µg/mL (≈ 44.2 µM)
MIC (M. kansasii): 25 µg/mL (≈ 70.7 µM)
Antimycobacterial Activity MIC M. kans. (M. kansasii; [13]): 25 µg/mL
Antimycobacterial Activity MIC M. avium (M. avium): ≥125 µg/mL
MIC (M. avium; [26]): ≥ 125 µg/mL
Antimycobacterial Activity MIC M. smeg. (M. smegmatis): ≥125 µg/mL
MIC (M. smegmatis; [27]): ≥ 125 µg/mL
Antimycobacterial Activity MIC M. aurum (M. aurum): ≥125 µg/mL
MIC (M. aurum; [28]): ≥ 125 µg/mL
IC50 (HepG2 [3]; [22]): > 50 µM
IC50 (HepG2 [3]; [23]): > 50 µM
IC50 (MRC-5 [4]; [24]): > 50 µM
IC50 (MRC-5 [4]; [25]): > 50 µM

Cc1nc2cc(Cl)ccc2c(=O)n1/N=C/c1ccc(Cl)cc1 [Compound 51]
MIC (Mtb H37Rv; [16]): > 25 µg/mL
MIC (Mtb H37Ra; [29]): ≥ 15.6 µg/mL
MIC (M. kansasii): > 25 µg/mL
MIC (M. avium; [26]): ≥ 15.6 µg/mL
MIC (M. smegmatis; [27]): ≥ 15.6 µg/mL
MIC (M. aurum; [28]): ≥ 15.6 µg/mL

Cc1nc2cc(Cl)ccc2c(=O)n1/N=C/c1ccccc1Br [Compound 52]
MIC (Mtb H37Rv; [16]): > 25 µg/mL
MIC (Mtb H37Ra; [29]): ≥ 31.2 µg/mL
MIC (M. kansasii): > 25 µg/mL
MIC (M. avium; [26]): ≥ 31.2 µg/mL
MIC (M. smegmatis; [27]): ≥ 31.2 µg/mL
MIC (M. aurum; [28]): ≥ 31.2 µg/mL

Cc1nc2cc(Cl)ccc2c(=O)n1/N=C/c1cccc(Br)c1 [Compound 53, (E)-7-Chloro-3-((3-bromobenzylidene)amino)-2-methylquinazolin-4(3H)-one]
MIC (Mtb H37Rv; [16]): > 25 µg/mL
MIC (Mtb H37Ra; [29]): ≥ 31.2 µg/mL
MIC (M. kansasii): > 25 µg/mL
MIC (M. avium; [26]): ≥ 31.2 µg/mL
MIC (M. smegmatis; [27]): ≥ 31.2 µg/mL
MIC (M. aurum; [28]): ≥ 31.2 µg/mL

NNC(=O)c1ccncc1 [INH, isoniazid, reference compound]
MIC (Mtb H37Rv; [16]): 0.2 µg/mL (≈ 1.46 µM)
MIC (Mtb H37Ra; Mycobacterium tuberculosis, H37RA; internal quality controls (standards); read-out: MINIMUM INHIBITORY CONCENTRATION Mycobacterium tuberculosis H37Ra): 0.125 to 0.25 µg/mL (≈ 0.911 to 1.82 µM)
MIC (Mtb H37Ra; [29]): 0.25 µg/mL (≈ 1.82 µM)
MIC (M. kansasii): 25 µg/mL (≈ 182 µM)
MIC (M. avium; Mycobacterium avium, DSM44156; internal quality controls (standards); read-out: MINIMUM INHIBITORY CONCENTRATION Mycobacterium avium DSM 44156): 500 to 1000 µg/mL (≈ 3650 to 7290 µM)
MIC (M. avium; [19]): 1000 µg/mL (≈ 7290 µM)
MIC (M. smegmatis; Mycolicibacterium smegmatis, DSM43465; internal quality controls (standards); read-out: MINIMUM INHIBITORY CONCENTRATION Mycolicibacterium smegmatis DSM 43465): 15.6 to 31.2 µg/mL (≈ 114 to 228 µM)
MIC (M. smegmatis; [20]): 15.6 µg/mL (≈ 114 µM)
MIC (M. aurum; Mycolicibacterium aurum, DSM43999; internal quality controls (standards); read-out: MINIMUM INHIBITORY CONCENTRATION Mycolicibacterium aurum DSM 43999): 1.95 to 3.91 µg/mL (≈ 14.2 to 28.5 µM)
MIC (M. aurum; [21]): 3.91 µg/mL (≈ 28.5 µM)

C[C@@H]1[C@H](O)[C@@H](C)/C=C/C=C/C=C/C=C/C=C/C=C/C=C/[C@H](O[C@@H]2O[C@H](C)[C@@H](O)[C@H](N)[C@@H]2O)C[C@@H]2O[C@](O)(C[C@@H](O)C[C@@H](O)[C@H](O)CC[C@@H](O)C[C@@H](O)CC(=O)O[C@H]1C)C[C@H](O)[C@H]2C(=O)O [amphotericin B]
IC90 [5]: 0.5 µg/mL (≈ 0.541 µM)
IC90 ([6]; read-out: IC90, spectrophotometric detection, Candida krusei): 1 µg/mL (≈ 1.08 µM)
MIC ([6]; read-out: MIC, visual detection, Candida krusei): 1 µg/mL (≈ 1.08 µM)
IC90 ([7]; read-out: IC90, spectrophotometric detection, Candida parapsilosis): 0.5 µg/mL (≈ 0.541 µM)
MIC ([7]; read-out: MIC, visual detection, Candida parapsilosis): 0.5 µg/mL (≈ 0.541 µM)
IC90 ([8]; read-out: IC90, spectrophotometric detection, Candida tropicalis): 1 µg/mL (≈ 1.08 µM)
MIC ([8]; read-out: MIC, visual detection, Candida tropicalis): 1 µg/mL (≈ 1.08 µM)
IC90 ([9]; read-out: IC90, spectrophotometric detection, Aspergillus fumigatus): 1 µg/mL (≈ 1.08 µM)
MIC ([9]; read-out: MIC, visual detection, Aspergillus fumigatus): 1 µg/mL (≈ 1.08 µM)
IC90 ([10]; read-out: IC90, spectrophotometric detection, Aspergillus flavus): 8 µg/mL (≈ 8.66 µM)
MIC ([10]; read-out: MIC, visual detection, Aspergillus flavus): 8 µg/mL (≈ 8.66 µM)
IC90 ([11]; read-out: IC90, spectrophotometric detection, Lichtheimia corymbifera): 0.5 µg/mL (≈ 0.541 µM)
MIC ([11]; read-out: MIC, visual detection, Lichtheimia corymbifera): 0.5 µg/mL (≈ 0.541 µM)
IC90 ([12]; read-out: IC90, spectrophotometric detection, Trichophyton interdigitale): 2 µg/mL (≈ 2.16 µM)
MIC ([12]; read-out: MIC, visual detection, Trichophyton interdigitale): 2 µg/mL (≈ 2.16 µM)

Source: PMC12221116, “Novel Quinazolinones Active against Multidrug‐Resistant Mycobacterium Tuberculosis: Synthesis, Antimicrobial Evaluation, and in Silico Exploration of Penicillin‐Binding Protein 1A as a Potential Target” (Chemmedchem, 2025)
